Values joined by “and” are separate entries in the source; they are usually repeats but may differ in a detail not shown here. Equal values may be shown once.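 A five-concentration, 48-hour dose response in 96-well plates underlies each endpoint, interpolated linearly between surrounding concentrations. At the GI50, growth is halved. The concentration for full growth arrest is given as TGI.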

The test system of the assay is MDA-MB-468 breast. Put plainly: inhibition of tumour cell growth, NCI panel, 48 h.
With `O=C(CSc1ncc(-c2ccccc2)n1-c1ccccc1)Nc1ccc(-c2nc3ccccc3s2)cc1`, the GI50 is 1350 nM and the TGI amounted to 4960 nM.

With `O=C(Nc1ccccc1)Nc1ccc(Cl)c(Cl)c1`, the GI50 is 2830 nM and the TGI is 13900 nM.

With `FC(F)(F)c1ccc(NCc2nc3ccccc3[nH]2)cc1`, the GI50 is 16700 nM and the TGI is 55600 nM.

As for `C#Cc1ccc(-n2c(/C=C/c3ccc4ccccc4c3)nc3ncccc3c2=O)cc1`, the GI50 is 963 nM and the TGI came out at 7770 nM.

Regarding `COc1cc(-c2nn(-c3cccc(NC(=O)CCN4CCN(C)CC4)c3)cc2-c2ccncc2)ccc1Cl`, the GI50 is 997 nM and the TGI stood at 2850 nM.

Take `O=C1NC(=N[C@H](CO)c2ccccc2)S/C1=C\c1ccc2ncccc2c1`: the GI50 was 2060 nM and the TGI stood at 8970 nM.

With `COC(=O)[C@]12CC[C@@H](C)[C@H](C)[C@@H]1C1=CC[C@@H]3[C@@]4(C)CC(=O)[C@H](O)[C@@](C)(CO)[C@@H]4C(=O)C[C@@]3(C)[C@]1(C)CC2`, the GI50 was 15200 nM and the TGI is 32200 nM.

On to `O=C1/C(=C/c2ccccc2[N+](=O)[O-])COc2ccc(O)c(O)c21`, for which the GI50 was 608 nM and the TGI is 2940 nM.

In the case of `CNCCN(C)Cc1cn[nH]c1-c1ccc(OC2CC(OCCC3CCOCC3)C2)cc1` (centres undefined), the GI50 was 33700 nM and the TGI was more than 100000 nM.

As for `COc1ccc2nc3cc(Cl)ccc3c(Nc3cc(C(C)C)c(O)cc3C)c2c1`, the GI50 is 1560 nM and the TGI came to 4600 nM.

As for `CCCCOc1ccc(S(=O)(=O)N2CCN(c3nc(C)cc(N4CCOCC4)n3)CC2)cc1`, the GI50 is 2690 nM and the TGI was more than 100000 nM.

`CNc1ncc2cc(-c3cc(NC(=O)NCCC(C)(C)C)c(F)cc3C)c(C)nc2n1` came in with a TGI of more than 67100 nM.

Regarding `CC(C)[C@H](C(=O)O[C@@H]1/C=C/C(=O)O[C@@H](C)CCC/C=C/[C@@H]2C[C@H](O)C[C@H]21)N(C)C`, the GI50 was 1610 nM and the TGI was 4620 nM.

For the compound `O=c1c2cc(-c3ccc(F)cc3F)ccc2n(O)c(=O)n1-c1cccc(C(F)(F)F)c1`, the GI50 was 1680 nM and the TGI came to 5400 nM.

Take `CNCCNc1nc2ccccc2c2c(=O)c3cccc(C)c3sc12`: the GI50 is 892 nM and the TGI came to 1940 nM.

With `COC(=O)c1ccc2c(C(=Nc3ccc(N(C)C(=O)CN4CCN(C)CC4)cc3)c3ccccc3)c(O)[nH]c2c1`, the GI50 was 2130 nM and the TGI stood at 9780 nM.

With `Cc1cc(C#Cc2ccccc2)ccc1-n1c(/C=C/c2cc(O)ccc2O)nc2ccccc2c1=O`, the GI50 is 1610 nM and the TGI was found to be 4190 nM.

On to `O=C1NC(=O)C(c2c[nH]c3ccccc23)=C1c1ccccc1`, for which the GI50 is more than 25000 nM and the TGI was more than 25000 nM.

`COc1ccc(/C=C2/CN(CCC#N)C/C(=C\c3ccc(OC)cc3)C2=O)cc1`: the GI50 was 1390 nM and the TGI is 4950 nM.

`CCN1C(=O)N(CC)C2C1NN=c1s/c(=C\c3ccc(OC)cc3)c(=O)n12` (centres undefined): the GI50 is 130 nM and the TGI was more than 60800 nM.

For `COCCOC1=C(Cl)C(=O)c2c(O)ccc(O)c2C1=O`, the GI50 is 899 nM and the TGI was found to be 2450 nM.

In the case of `Fc1ccc(-c2c(-c3ccncc3)[nH]c3nccnc23)cc1`, the GI50 was 4480 nM and the TGI is more than 21500 nM.

For the compound `N[C@@H](CSSC[C@H](N)C(=O)N1CCn2cc(-c3ccccc3)nc2[C@@H]1CC1CCCCC1)C(=O)N1CCn2cc(-c3ccccc3)nc2[C@@H]1CC1CCCCC1`, the GI50 is 1070 nM and the TGI amounted to 2530 nM.

Take `Cn1cc(C2=C(c3c(S(C)=O)n(C)c4ccccc34)C(=O)NC2=O)c2ccccc21` (centres undefined): the GI50 is 6710 nM and the TGI was more than 25000 nM.

Take `Oc1cccc(-c2nc(-c3ccccc3)[nH]c2-c2ccncc2)c1`: the GI50 is 2080 nM and the TGI was 11400 nM.

On to `N#Cc1ccc(/C=C/C(=O)c2ccccc2)cc1`, for which the GI50 was 5950 nM and 1890 nM; the TGI was 21100 nM and 5440 nM.

Regarding `CC1(O)COCCCCOc2c(CN)cccc2NC(=O)c2nc(cnc2N)-c2ccc(cc2)S(=O)(=O)C(C)(C)C1` (centres undefined), the GI50 was 939 nM and the TGI was 2520 nM.

In the case of `OCc1ccc(N(Cc2ccc(F)cc2)CC2CCC2)cc1Cl`, the GI50 was 184 nM and the TGI worked out at 610 nM.

As to `O=C(O)c1cn(C2CC2)c2cc(N3CCN(Cc4ccc5ccccc5c4O)CC3)c(F)cc2c1=O`, the GI50 was 4550 nM and the TGI is more than 100000 nM.

For `Cc1cc(N)cc(C)c1-c1c(Br)cc(N)cc1Br`, the GI50 is 2090 nM and the TGI is 6580 nM.

Turning to `Cc1[nH]n(-c2cccc(Cl)c2)c(=O)c1/C=C1\C=c2ccccc2=CC1=O`, the GI50 was 17600 nM and the TGI came out at 74700 nM.

On to `COc1ccc2c(c1)N(CCO)C1=C(C(=O)OC1)C2c1ccc(OC)c(OC)c1` (centres undefined), for which the GI50 is 1740 nM and the TGI came to 7570 nM.

Consider `CCCCNNC(=O)c1ccc(-c2cccc(F)c2F)cc1`, for which the GI50 was 1710 nM and the TGI came to 6060 nM.

`N=C1/C(=C2\Nc3ccccc3S2)CC(=O)N1c1ccc(SC(F)F)cc1`: the GI50 was more than 100000 nM and the TGI was more than 100000 nM.

Consider `COc1ccc(-c2nc3sccn3c2-c2ccnc(NCCCNS(=O)(=O)c3ccc(F)cc3)n2)cc1`, for which the GI50 was 1550 nM and the TGI turned out to be 6480 nM.

`CCN(CCO)CCCOc1ccc2c(Nc3cc(CC(=O)Nc4cccc(F)c4)[nH]n3)ncnc2c1`: the GI50 is 1040 nM and 109 nM; the TGI is 18900 nM.

With `CS(=O)(=O)N1CCc2c(-c3cnc(N)nc3)nc(N3CCOCC3)nc21`, the GI50 was 305 nM and 264 nM; the TGI is 3000 nM and 2300 nM.

`COc1cc(Cn2c(SCC(=O)Nc3ccc(Cl)cc3)nc3ccccc3c2=O)cc(OC)c1OC`: the GI50 is 7220 nM and the TGI amounted to 42400 nM.

`CN1CCN(c2ccc(Nc3ncc4cc5n(c4n3)C3(CCCCC3)CNC5=O)nc2)CC1`: the GI50 is 10900 nM and the TGI was found to be 36000 nM.

In the case of `CCCc1n(Cc2ccc3ccccc3n2)cc[n+]1Cc1ccc2ccccc2n1`, the GI50 is 232 nM and the TGI stood at 1550 nM.
